Where two headings read alike, the source gives them in different places.
Columns and labels:
uridine kinase [1] = settings: cited from earlier work
uridine kinase [2] = settings: cited from earlier work; remark: listed apart in the source
[3] = Characterization of recombinant His-tagged human uridine kinase expressed in E.coli; assay type: biochemical
Description: The novel human UDK gene has been cloned into an expression vector pET 16b (Novagen) with a His tag at its NH2-terminus. The gene was expressed in E.coli and has been purified to >95% purity by Ni-NTA affinity chromatography.

O=c1ccn([C@@H]2O[C@H](CO)[C@@H](O)[C@H]2O)c(=O)[nH]1 [uridine]
Km (uridine kinase [1]; normal rat liver): 5000 µM
Km (uridine kinase [1]; rapidly growing hepatoma 3924A): 800 µM
Km (uridine kinase [2]; normal ovary): 11500 µM
Km (uridine kinase [2]; ovarian carcinoma): 500 µM

B1: Human Uridine Kinase: novel human UDK gene product expressed in E.coli from pET 16b, purified by Ni-NTA affinity chromatography (protein)
chain: MASAGGEDCESPAPEADRPHQRPFLIGVSGGTASGKSTVCEKIMELLGQNEVEQRQRKVVILSQDRFYKVLTAEQKAKALKGQYNFDHPDAFDNDLMHRTLKNIVEGKTVEVPTYDFVTHSRLPETTVVYPADVVLFEGILVFYSQEIRDMFHLRLFVDTDSDVRLSRRVLRDVRRGRDLEQILTQYTTFVKPAFEEFCLPTKKYADVIIPRGVDNMVAINLIVQHIQDILNGDICKWHRGGSNGRSYKRTFSEPGDHPG
modifications: His tag from pET16b; Human
Optimum pH [3]: 9.0
Specific Activity ([3]; purified enzyme, His tag at NH2-terminus): 678 nmol/min/mg protein
enzymatic activity ([3]; with the His tag): good enzymatic activity

Reference: US6579708B1, “Human uridine kinase” (SmithKline Beecham Corporation, priority 2000, dated 2003)
